Assay results taken from US9856508B2, “Chemiluminescent compositions, methods, assays and kits for oxidative enzymes” (LIFE TECHNOLOGIES CORPORATION, priority 2010, dated 2018).
Each block holds one compound with its values, some of them ahead of it.

Key:
[1] = target: T1, CYP2C8 (Homo sapiens, UniProt P10632); assay: Isozyme specificity of 1,2-dioxetane substrates, rhCYP microsomes, 2-step endpoint assay; type: biochemical; conditions: dioxetane as enzyme substrate
T1 construct: host or cells: recombinant human CYP microsomes
T1 sequence (P10632 1-490): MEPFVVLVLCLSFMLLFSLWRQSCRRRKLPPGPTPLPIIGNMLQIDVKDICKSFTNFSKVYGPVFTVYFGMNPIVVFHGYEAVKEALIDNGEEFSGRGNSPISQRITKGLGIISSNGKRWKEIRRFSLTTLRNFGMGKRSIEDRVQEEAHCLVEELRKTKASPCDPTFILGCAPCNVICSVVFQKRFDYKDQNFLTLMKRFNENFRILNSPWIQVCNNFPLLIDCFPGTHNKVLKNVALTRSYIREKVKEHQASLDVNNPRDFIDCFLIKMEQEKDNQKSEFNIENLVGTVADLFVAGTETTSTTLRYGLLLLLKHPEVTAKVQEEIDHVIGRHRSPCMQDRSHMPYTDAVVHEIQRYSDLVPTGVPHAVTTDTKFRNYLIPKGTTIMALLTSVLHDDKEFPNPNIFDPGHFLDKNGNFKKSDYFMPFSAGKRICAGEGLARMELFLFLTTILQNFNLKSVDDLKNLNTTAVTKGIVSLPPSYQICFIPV
Description: (§1) Assays were performed using the same conditions (25° C., 5 nM rhCyp, 10 μM substrate, 25 min endpoint assay, with isozyme-specific buffers, Luminoscan plate reader) but on different days.
(§2) Cytochrome P450 assays have been developed to determine the isozyme specificity of novel 1,2-dioxetane chemiluminescent CYP450 substrates. In these assays, a 1,2-dioxetane substrate that has been determined to be a good substrate for a specific CYP450 isozyme is screened against individual recombinant (human or other) CYP450 isozymes. The protocol follows the 2-Step Endpoint assay format described above (Example 2, Format 1). The assay can be performed using either assay conditions that mimic an inhibition assay (Example 1) using substrate concentrations near the known or predicted Km of the substrate with its known isozyme, or at concentrations designed for more sensitive enzyme detection which is generally above the Km. Assays can be performed in several different ways depending on the desired information. If one is seeking to find out if the dioxetane is a substrate for different CYP450 isozymes at the specific isozyme's preferred assay conditions, the assays should be performed using the buffer and assay conditions preferred by each specific isozyme (Format 1). If one wants to find out if the dioxetane substrate is selective for a given CYP450 isozyme at that isozyme's preferred assay conditions, the assay should be performed using only the assay conditions of the matched isozyme (Format 2). Assays use recombinant human (rh) CYP450 isozymes (final [5 or 10 nM]), NADPH Regeneration System (final [1×]) and Potassium Phosphate Buffer prepared in a 2× Master Mix. 50 μL of the Master Mix is added to the wells of a 96-well plate. 40 μL of water is added the rows of the plate containing the Master Mix. The reaction is started by addition of 10 μL of a 10× NADP+ (nicotinamide adenine dinucleotide phosphate) and 1,2-Dioxetane Substrate (final [1 to 10 μM]) mix to assay wells. The assays are incubated for either 25 min (Format 1) or at the specific assay time (see Example 48, Format 2).
(§3) • (See FIGS. 3A, 4A, and 5A.) Materials: • rhCytochrome P450 Isozymes: • CYP3A4 (BD/Gentest, Cat #456202) (or other vendor) • CYP2C19 (BD/Gentest, Cat #456259) (or other vendor) • CYP2C9 (BD/Gentest, Cat #456258) (or other vendor) • CYP2D6 (BD/Gentest, Cat #456217) (or other vendor) • CYP1A2 (BD/Gentest, Cat #456203) (or other vendor) • Or Other CYP450 recombinant isozymes • 200 mM Potassium Phosphate Buffer, pH 7.4 • 100 mM Potassium Phosphate Buffer, pH 7.4 • 100× NADP+ • (10 mM NADP+ in 100 mM Potassium phosphate buffer, pH 7.4) • 100× Regeneration System • (333 mM Glucose-6-phosphate, 30 Units/mL Glucose-6-phosphate dehydrogenase in 100 mM Potassium Phosphate Buffer, pH 7.4) • 1,2-Dioxetane Substrates (in 100% Acetonitrile, water, or acetonitrile/water mixture) • 96 well white microplate • Accelerator II Protocol Overview: (See, FIG. 10). Assay Set-Up:
(§4) Contains: • NADP+: 100× stock is 10 mM NADP+ in 100 mM Potassium Phosphate Buffer, pH 7.4 • 100 μM Known 1,2-Dioxetane Substrate Assay Procedure: • 1. Thaw all reagents on ice, except substrates: warm-up to RT under aluminum foil (light sensitive) • 2. Prepare 2× Master Mixes in 2× reaction buffer (keep on ice).
(§5) • 3. Add 50 μL of the specific 2× Master Mix to the desired wells • 4. Add 40 μL of sterile water (H2O) to each well of the plate • 5. Cover plate with plate sealer and let the assay wells equilibrate to 25° C. or room temperature for a few minutes while you prepare the 10×NADP+/Substrate Mixture. • 6. Prepare 10× NADP+/Substrate Mixture immediately before use (light sensitive!)
(§6) • 100× NADP+: 10× (1× final) • H2O: to final volume. • Add substrate by trituration and vortex to allow for maximum substrate solubility in the aqueous mixture. • *The final organic solvent concentration in the assay should be less than 0.1% and preferably much less. • 7. […]

[2] = tested on: 2C19 and 2C18 isozymes; assay: as above; type: biochemical, human; conditions: dioxetane as enzyme substrate
Description: as §1
Cytochrome P450 assays have been developed to determine the isozyme specificity of novel 1,2-dioxetane chemiluminescent CYP450 substrates. In these assays, a 1,2-dioxetane substrate that has been determined to be a good substrate for a specific CYP450 isozyme is screened against individual recombinant (human or other) CYP450 isozymes. The protocol follows the 2-Step Endpoint assay format described above (Example 2, Format 1). The assay can be performed using either assay conditions that mimic an inhibition assay (Example 1) using substrate concentrations near the known or predicted Km of the substrate with its known isozyme, or at concentrations designed for more sensitive enzyme detection which is generally above the Km. Assays can be performed in several different ways depending on the desired information. If one is seeking to find out if the dioxetane is a substrate for different CYP450 isozymes at the specific isozyme's preferred assay conditions, the assays should be performed using the buffer and assay conditions preferred by each specific isozyme (Format 1). If one wants to find out if the dioxetane substrate is selective for a given CYP450 isozyme at that isozyme's preferred assay conditions, the assay should be performed using only the assay conditions of the matched isozyme (Format 2). Assays use recombinant human (rh) CYP450 isozymes (final [5 or 10 nM]), NADPH Regeneration System (final [1×]) and Potassium Phosphate Buffer prepared in a 2× Master Mix. 50 μL of the Master Mix is added to the wells of a 96-well plate. 40 μL of water is added the rows of the plate containing the Master Mix. The reaction is started by addition of 10 μL of a 10× NADP+ (nicotinamide adenine dinucleotide phosphate) and 1,2-Dioxetane Substrate (final [1 to 10 μM]) mix to assay wells. The assays are incubated for either 25 min (Format 1) or at the specific assay time (see Example 48, Format 2). […]

[3] = tested on: other CYP isozyme; assay: as above; type: biochemical, human; conditions: FIG. 5A, 25° C., 25 min, 10 μM BZT-Me, 5 nM rhCYP450
Description: FIG. 5A and FIG. 5B compare CYP450 isozyme specificity of 1,2-dioxetane substrate BZT-Me in recombinant human microsomes (rhCYPs) and human liver microsomes. FIG. 5A is a graphic representation of isozyme specificity of BZT-Me in rhCYP microsomes. Assays were performed ate 25° C. for 25 min using 10 μM BZT-Me, 5 nM rhCYP450, and isozyme-preferred potassium phosphate buffer, pH 7.4. […] FIG. 5B is a graphic representation of isozyme specificity of BZT-Me in pooled human liver microsomes (HLMs). Assays were performed for 25 min at 25° C. using 20 μM BZT-Me and 50 mM potassium phosphate buffer, pH 7.4. Positive (2C19) and negative (3A4, 2D6, and microsome only) controls were performed using 5 nM rhCYP450 microsomes. Pooled HLMs or low 2C19 HLMs were assayed at 0.5, 0.25, 0.125, or 0.0625 mg/ml. Assays were performed with or without 2 μM ketoconazole to indicate CYP3A family specificity or 0.5 μM miconozole. All assays were performed using the 2-step assay method (Example 48, Format A).
Cytochrome P450 assays have been developed to determine the isozyme specificity of novel 1,2-dioxetane chemiluminescent CYP450 substrates. In these assays, a 1,2-dioxetane substrate that has been determined to be a good substrate for a specific CYP450 isozyme is screened against individual recombinant (human or other) CYP450 isozymes. […]

[4] = target: T2, CYP2C19 (Homo sapiens, UniProt P33261); assay: as above; type: biochemical; conditions: for specificity for the CYP2C19 isozyme: FIG. 4A/5A, rhCYP microsomes, 25° C., 25 min, 10 μM substrate, 5 nM rhCYP450, isozyme-preferred potassium phosphate buffer, pH 7.4; for activity from CYP2C19 under CYP2C19 assay conditions: dioxetane as enzyme substrate
T2 construct: purchased BD/Gentest (or other vendor) 456259; host or cells: recombinant human CYP microsomes
Description: as §1, §2, §3, §4, §5, §6

[5] = tested on: CYP2C19; assay: Isozyme specificity of AMPPD-Bn in pooled human liver microsomes (HLMs); type: biochemical; conditions: FIG. 4B, 25 min, 25° C., 20 μM AMPPD-Bn, 100 mM potassium phosphate buffer, pH 7.4
Description: FIG. 4A and FIG. 4B compare CYP450 isozyme specificity of 1,2-dioxetane substrate AMPPD-Bn in recombinant human microsomes (rhCYPs) and human liver microsomes. FIG. 4A is a graphic representation of isozyme specificity of AMPPD-Bn in rhCYP microsomes. Assays were performed at 25° C. for 25 min using 10 μM AMPPD-Bn, 5 nM rhCYP450 and isozyme-preferred potassium phosphate buffer, pH 7.4. […] FIG. 4B is a graphic representation of isozyme specificity of AMPPD-Bn in pooled human liver microsomes (HLMs). Assays were performed for 25 min at 25° C. using 20 μM AMPPD-Bn and 100 mM potassium phosphate buffer, pH 7.4. Positive (3A4) and negative (2C19, 2D6 and microsome only) controls were performed using 5 nM rhCYP450 microsomes. Pooled HLMs were assayed at 0.5, 0.25, 0.125, or 0.0625 mg/ml. Assays were performed either with or without 2 μM ketoconazole to indicate CYP3A family specificity. […] All assays were performed using the 2-step assay method (Example 48, Format A).
The protocol follows the 2-Step endpoint assay format described in Example 48 (Format A). […] The assays are incubated for either 10 to 25 min before addition of Accelerator and reading of luminescent signal on a luminometer. For relative quantification, samples can be compared to a standard curve of known enzyme concentration, bearing in mind that recombinant enzyme can not fully compare to native enzyme. […]

[6] = target: T3, CYP3A family isozymes (Homo sapiens, UniProt P08684); assay: Isozyme specificity of 1,2-dioxetane substrates, rhCYP microsomes, 2-step endpoint assay; type: biochemical; conditions: FIG. 4A; rhCYP microsomes, 25° C., 25 min, 10 μM substrate, 5 nM rhCYP450, isozyme-preferred potassium phosphate buffer, pH 7.4
T3 construct: purchased BD/Gentest (CYP3A4 only; or other vendor) 456202 (CYP3A4); host or cells: recombinant human CYP microsomes
Description: as §1, §2, §3, §4, §5, §6

[7] = tested on: CYP3A family isozymes; assay: as above; type: biochemical, human; conditions: dioxetane as enzyme substrate
Description: as §1, §2, §3, §4, §5, §6

T2 sequence (P33261 whole entry): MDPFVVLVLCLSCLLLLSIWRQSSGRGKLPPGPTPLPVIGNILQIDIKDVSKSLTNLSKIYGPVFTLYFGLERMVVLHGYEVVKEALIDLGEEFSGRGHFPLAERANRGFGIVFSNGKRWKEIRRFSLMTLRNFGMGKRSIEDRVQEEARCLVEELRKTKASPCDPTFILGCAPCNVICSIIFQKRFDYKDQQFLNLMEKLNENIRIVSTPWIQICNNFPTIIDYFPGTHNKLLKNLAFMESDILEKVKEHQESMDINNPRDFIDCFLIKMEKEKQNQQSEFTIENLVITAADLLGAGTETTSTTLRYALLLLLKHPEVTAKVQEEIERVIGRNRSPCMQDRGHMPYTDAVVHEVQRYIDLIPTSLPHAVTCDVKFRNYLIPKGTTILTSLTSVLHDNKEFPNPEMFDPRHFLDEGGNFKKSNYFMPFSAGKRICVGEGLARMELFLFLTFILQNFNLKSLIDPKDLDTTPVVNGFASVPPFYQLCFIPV
T3 sequence (P08684 whole entry): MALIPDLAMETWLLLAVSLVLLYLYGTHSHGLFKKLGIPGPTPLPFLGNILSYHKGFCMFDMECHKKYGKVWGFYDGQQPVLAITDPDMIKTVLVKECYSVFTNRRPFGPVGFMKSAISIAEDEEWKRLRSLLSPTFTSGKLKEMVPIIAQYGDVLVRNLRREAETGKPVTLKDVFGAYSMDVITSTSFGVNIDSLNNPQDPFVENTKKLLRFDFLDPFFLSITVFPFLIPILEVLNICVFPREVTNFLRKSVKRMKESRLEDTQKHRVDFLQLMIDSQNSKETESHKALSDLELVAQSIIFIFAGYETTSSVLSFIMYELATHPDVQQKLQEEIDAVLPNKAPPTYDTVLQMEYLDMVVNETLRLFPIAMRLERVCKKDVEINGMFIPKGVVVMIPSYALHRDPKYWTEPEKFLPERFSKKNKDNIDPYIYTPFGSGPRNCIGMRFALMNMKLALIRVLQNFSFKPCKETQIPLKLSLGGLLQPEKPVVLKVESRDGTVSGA

specificity for CYP2C8 [1]: high specificity
Compound: CCOc1cccc(C2(OC)OOC23C2CC4CC3CC(OCCC(C(=O)[O-])C(=O)[O-])(C4)C2)c1.[Na+].[Na+] (stereo not drawn) [bis-CO2Na-Ad-Ph-OEt dxt]

specificity for 2C19 and 2C18 isozymes [2]: strong specificity
Compound: COc1ccc2sc(C3(OC)OOC34C3CC5CC(C3)CC4C5)cc2c1Cl (stereo not drawn) [Cl-BZT-Me]

specificity for the CYP3A family isozymes [7]: strong specificity
Compound: CCOc1cccc(C2(OC)OOC23C2CC4CC3CC(OCC[N+](C)(CC)CC)(C4)C2)c1 (stereo not drawn) [Q+-Amino-Ad-Ph-OEt, Q^+-Amino-Ad-Ph-OEt dxt]

Second part, the compound before the results:

Compound: COc1ccc2sc(C3(OC)OOC34C3CC5CC(C3)CC4C5)cc2c1 (stereo not drawn) [BZT-Me]
specificity for 2C19 and 2C18 isozymes [2]: strong specificity
oxidation by other CYP isozyme [3]: also oxidized
specificity for the CYP2C19 isozyme [4]: strong specificity

Compound: COc1cc(C2(OC)OOC23C2CC4CC3CC(Cl)(C4)C2)ccc1Cl (stereo not drawn) [CDP-Star-Me]
specificity for 2C19 and 2C18 isozymes [2]: strong specificity

Compound: CCOc1cc(C2(OC)OOC23C2CC4CC3CC(Cl)(C4)C2)ccc1Cl (stereo not drawn) [CDP-Star-Et, CDP-Star-ET]
specificity for 2C19 and 2C18 isozymes [2]: strong specificity

Compound: COC1(c2cccc(OCc3ccccc3)c2)OOC12C1CC3CC(C1)CC2C3 (stereo not drawn) [AMPPD-Bn]
contribution of CYP2C19 activity to AMPPD-Bn oxidation in HLMs [5]: does not significantly contribute
specificity for the CYP2C19 isozyme [4]: strong specificity
activity from CYP2C19 under CYP2C19 assay conditions [4]: significant activity
specificity for CYP3A4 isozyme [6]: strong specificity
specificity for the CYP3A family isozymes [7]: strong specificity

Compound: COC1(c2ccc(Cl)c(OCc3ccccc3)c2)OOC12C1CC3CC2CC(Cl)(C3)C1 (stereo not drawn) [CDP-Star-Bn]
activity from CYP2C19 under CYP2C19 assay conditions [4]: significant activity
specificity for the CYP3A family isozymes [7]: strong specificity
